Columns and labels:
PDE3 (cGMP-inhibited) = molecular target: T1, PDE3 (cGMP-inhibited) (Homo sapiens, UniProt Q14432); assay: Inhibition of PDE isoenzymes: PDE3; type: biochemical; settings: homogenates of human blood platelets, cAMP as substrate; read-out: PDE3 [-loglC50,mol/l] (converted)
T1 construct: were investigated in homogenates of human blood platelets; from tissue; host or cells: homogenates of human blood platelets
Procedure: The PDE activity was determined according to Thompson et al. (1) with some modifications (2). The test samples contained 40 mM tris HCl (pH 7.4), 5 mM MgCl2, 0.5 μM cAMP or cGMP, [^3 H] cAMP or [3H]CGMP (about 50,000 cpm/sample), the PDE isoenzyme-specific additions described in greater detail below, the indicated concentrations of inhibitor and an aliquot of the enzyme solution in a total sample volume of 200 μl. […] After preincubation at 37° C. for 5 minutes, the reaction was started by addition of the substrate (cAMP or cGMP). The samples were incubated at 37° C. for a further 15 min. The reaction was terminated by addition of 50 μl of 0.2 N HCl. After cooling on ice for 10 minutes and addition of 25 μg of 5'-nucleotidase (snake venom from Crotalus atrox), the mixture was again incubated at 37° C. for 10 min and the samples were then applied to QAE Sephadex A-25 columns. The columns were eluted with 2 ml of 30 mM ammonium formate (pH 6.0). The radioactivity of the eluate was measured and corrected by the corresponding blank values. The proportion of hydrolysed nucleotide in no case exceeded 20% of the original substrate concentration.
PDE3 (cGMP-inhibited) and PDE5 (cGMP-specific) were investigated in homogenates of human blood platelets [Schudt et al. (4)] using cAMP or cGMP as a substrate.
The IC50 values were determined from the concentration-inhibition curves by nonlinear regression using the GraphPad InPlot™ program (GraphPad Software Inc., […], USA).

PDE4 (cAMP-specific) = assay: Inhibition of PDE isoenzymes: PDE4; type: biochemical; settings: cytosol of human polymorphonuclear leukocytes (PMNL), cAMP as substrate, motapizone 1 μM present

T1 sequence (Q14432 whole entry): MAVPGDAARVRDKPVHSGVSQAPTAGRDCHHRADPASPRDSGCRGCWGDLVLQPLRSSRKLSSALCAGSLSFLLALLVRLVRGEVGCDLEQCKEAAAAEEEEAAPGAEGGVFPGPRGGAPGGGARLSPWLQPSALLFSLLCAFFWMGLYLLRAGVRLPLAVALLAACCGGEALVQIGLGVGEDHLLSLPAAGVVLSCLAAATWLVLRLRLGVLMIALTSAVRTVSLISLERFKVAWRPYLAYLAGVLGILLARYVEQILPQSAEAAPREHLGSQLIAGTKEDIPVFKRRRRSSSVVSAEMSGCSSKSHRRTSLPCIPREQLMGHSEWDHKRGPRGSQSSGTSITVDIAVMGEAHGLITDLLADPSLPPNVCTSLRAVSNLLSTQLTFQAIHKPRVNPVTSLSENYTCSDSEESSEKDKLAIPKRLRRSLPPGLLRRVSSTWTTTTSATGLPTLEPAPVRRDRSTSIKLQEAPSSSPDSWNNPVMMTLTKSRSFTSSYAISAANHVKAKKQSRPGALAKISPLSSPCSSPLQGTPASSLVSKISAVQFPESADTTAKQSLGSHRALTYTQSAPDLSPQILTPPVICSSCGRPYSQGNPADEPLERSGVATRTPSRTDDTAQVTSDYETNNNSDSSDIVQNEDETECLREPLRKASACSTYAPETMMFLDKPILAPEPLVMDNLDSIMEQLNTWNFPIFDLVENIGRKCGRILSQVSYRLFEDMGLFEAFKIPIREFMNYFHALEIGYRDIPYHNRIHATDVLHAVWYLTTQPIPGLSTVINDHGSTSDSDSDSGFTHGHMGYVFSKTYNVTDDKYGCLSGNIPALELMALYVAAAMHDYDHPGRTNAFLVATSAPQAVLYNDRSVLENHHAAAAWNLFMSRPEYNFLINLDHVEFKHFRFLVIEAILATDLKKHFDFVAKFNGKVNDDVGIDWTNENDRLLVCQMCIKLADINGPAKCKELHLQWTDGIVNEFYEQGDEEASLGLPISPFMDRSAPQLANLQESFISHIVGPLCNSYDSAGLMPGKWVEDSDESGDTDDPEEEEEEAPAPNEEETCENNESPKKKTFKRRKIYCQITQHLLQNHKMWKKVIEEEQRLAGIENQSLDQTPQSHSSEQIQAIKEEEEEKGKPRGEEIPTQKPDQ

Compound	IC50 (PDE3 (cGMP-inhibited)) [nM]	PDE4 [-loglC50,mol/l] (PDE4 (cAMP-specific))
CCCCN(CCCC)C(=O)c1ccc(C2=N[C@@H]3CC[N+](C)([O-])C[C@@H]3c3cc(OCC)c(OC)cc32)cc1 (relative stereo) [Compound 2, cis-9-ethoxy-2-methyl-8-methoxy-6-(4-dibutylaminocarbonylphenyl)-1 ,2,3,4,4a,10b-hexahydrobenzo[c][1,6]naphthyridine N-2-oxide]	1070	7.98
CCCCN(CCCC)C(=O)c1ccc(C2=N[C@@H]3CC[N+](C)([O-])C[C@@H]3c3cc(OCCC)c(OC)cc32)cc1 (relative stereo) [Compound 3, cis-8-methoxy-2-methyl-9-propoxy-6-(4-dibutylaminocarbonylphenyl)-1 ,2,3,4,4a,10b-hexahydrobenzo[c][1,6]naphthyridine N-2-oxide]	2090	7.53
CCOc1cc2c(cc1OC)C(c1ccc(C(=O)N(C(C)C)C(C)C)cc1)=N[C@@H]1CC[N+](C)([O-])C[C@H]21 (single isomer, unassigned) [Compound 1, cis-9-ethoxy-8-methoxy-2-methyl-6-(4-diisopropylaminocarbonylphenyl)-1,2,3,4,4a,10b-hexahydrobenzo[c][1,6]naphthyridine N-2-oxide]	776	7.20

From patent publication US6306869A, “N-oxides” (Byk Gulden Lomberg Chemische Febrik GmbH, priority 1998, dated 2001)
